Data on 45 compounds can be found in patent publication US9440989B2, “Antifibrinolytic compounds” (PROYECTO DE BIOMEDICINA CIMA, S.L., priority 2012, dated 2016).

Test [1] has as its system human blood (whole blood clot lysis, tPA). The experiment in a line: Thromboelastometry (ROTEM, modified in-tem with tPA): whole blood clot formation and lysis, human blood. The settings on record: read-out: EC50LT (effective concentration to delay lysis time by 50%).
Experimental: A modification of in-tem test as described below was used for the examination of antifibrinolytic effects of tested compounds and its interaction with platelets in citrated blood.
In a pre-warmed cuvette and holder 1 μL of Tissue plasminogen activator (tPA) (150,000 U/mL, Actylise), 20 μL of start-tem reagent (CaCl2), 20 μL of in-tem reagent (activators of coagulation system), 3 μL of DMSO (control) or tested compounds (CMs) in DMSO and 300 μL of citrated blood pre-warmed were pipetted. The cup holder containing the sample mixture was placed immediately on the appropriate channel. The measurement was recorded for 60 min to allow clot formation and lysis.
For test [2], the system named is tPA-prolonged tail bleeding in wild type mice (C57/Bl6). As to the kind of experiment: Tail bleeding assay, hyperfibrinolytic bleeding model (tPA 0.5 mg/kg). The format is in vivo. To be noted: n≧10. As for the experimental part: Bleeding time was evaluated in 2 months old wild-type C57B16 (n=10) mice by removing the tail tip. Mice (20-25 g) were anaesthetized with 2.5% isoflurane and maintained at 37° C. on heating pads. The hemostatic efficacy was evaluated in 2 models, traditional bleeding model and hyperfibrinolytic bleeding model.
Hyperfibrinolytic bleeding model, consisted in injection of 0.5 mg/kg tPA into the ocular plexus to prolong bleeding time due to excessive fibrinolysis. […] The catheter was connected to a syringe pump (AL-1000, WPI) for the infusion of 200 μL (10% bolus, 90% perfusion during 40 minutes) of tested agents. Then, tPA (0.5 mg/kg) was injected into the ocular plexus and five minutes after tPA administration, saline or the different compounds was infused through the femoral catheter to ensure systemic distribution of all the agents. Reference compounds, TXA and Aprotinin, were administered at 300 and 10 mg/Kg respectively; however, all compounds of the invention were administered at 1 mg/Kg. Five minutes later, 5 mm of tail tip were removed using a scalpel blade and the tail tip bathed in 1 mL of sterile saline at 37° C.
The time of bleeding was defined as the interval between initial transections and the visual cessation of bleeding, that was measured up to 30 minutes. A value of 30 min was assigned to those animals bleeding longer than the observation period. […] Bleeding time was determined in wild type mice (C57/Bl6), where n≧10 per assayed compound; therefore, BT is reported as a mean value—in the case of saline, BT is reported as mean±ESM.

In test [3] the test system is mice blood (whole blood clot lysis, tPA). The experiment in a line: Thromboelastometry (ROTEM, modified in-tem with tPA): whole blood clot formation and lysis, mice blood. The test is classed as cell-based. The settings on record: Mus musculus, read-out: EC50LT (effective concentration to delay lysis time by 50%), assayed concentrations 1000-0.2 μM.
Setting [4] is: 1 mg/Kg infused via femoral vein.
The mark [5] stands for this setting: human blood, tPA, assayed concentrations 1000-0.2 μM.

Read-outs that look alike come from different tables or passages of the source. Marks after values point to notes of the source that are not given here. Some results are limits rather than exact numbers.

As for `O=C(O)c1ccc(Oc2ccc(S(=O)(=O)C3(C(=O)NO)CCC4(CCNCC4)C3)cc2)cc1` (centres unmarked) [Example 1-07], the EC50 in test [1] (Homo sapiens) is below 1000 nM; in test [3] it was below 1 nM. For the same compound, the “BT (bleeding time, mean)” value in test [2] (setting [4]) is recorded as “++* (10 minutes≦BT<20 minutes (++))”.
With `CNC(=O)c1ccc(Oc2ccc(S(=O)(=O)C3(C(=O)NO)CCC4(CCNCC4)C3)cc2)cc1` (centres unmarked) [Example 1-08], the EC50 in test [1] (Homo sapiens) was below 1000 nM; in test [3], 1 to 1000 nM. The “BT (bleeding time, mean)” value in test [2] (setting [4]) was “++++**†† (BT<5 minutes (++++))”.
`O=C(NO)C1(S(=O)(=O)c2ccc(NC3CCCCC3)cc2)CCC2(CCNCC2)C1` (centres unmarked) [Example 1-14]: the results for the EC50 in test [1] (Homo sapiens) and in test [3] were below 1000 nM and 1 to 1000 nM, respectively. In test [2] (setting [4]), the “BT (bleeding time, mean)” value is “++++**†† (BT<5 minutes (++++))”.
For `O=C(NO)C1(S(=O)(=O)c2ccc(Oc3ccc(OC(F)(F)F)cc3)cc2)CCC2(CCNCC2)C1` (centres unmarked) [Example 1-73], the EC50 was below 1000 nM in test [1] (Homo sapiens) and 1000 to 10000 nM in test [3]. Besides, the “BT (bleeding time, mean)” value in test [2] (setting [4]) is “++++**†† (BT<5 minutes (++++))”.
Consider `O=C(NO)C1(S(=O)(=O)c2ccccc2NC2CCCCC2)CCC2(CCNCC2)C1` (centres unmarked) [Example 1-79], for which, in test [1] (Homo sapiens), the EC50 was below 1000 nM. In addition, the “BT (bleeding time, mean)” value in test [2] (setting [4]) is reported as “++** (10 minutes≦BT<20 minutes (++))”.
For `O=C(NO)C1(S(=O)(=O)c2ccc(NC3CCCCC3)c(Cl)c2)CCC2(CCNCC2)C1` (centres unmarked) [Example 1-80], in that order: below 1000 nM and “+++**† (5 minutes≦BT<10 minutes (+++))”.
For `O=C(NO)C1(S(=O)(=O)c2ccc(NCC3CCCCC3)cc2)CCC2(CCNCC2)C1` (centres unmarked) [Example 1-82], in that order: below 1000 nM and “+++** (5 minutes≦BT<10 minutes (+++))”.
For `O=C(NO)C1(S(=O)(=O)c2ccc(OCC3CCCCC3)cc2)CCC2(CCNCC2)C1` (centres unmarked) [Example 1-92], the EC50 in test [1] (Homo sapiens) fell in the range of 1000 to 10000 nM.
On the same count and under the same terms, to `CNC(=O)c1ccc(Oc2ccc(S(=O)(=O)C3(C(=O)NO)CCC4(CCNCC4)C3)cc2)c(F)c1` (centres unmarked) [Example 1-93] belongs above 25000 nM; to `COC(=O)c1ccc(Oc2ccc(S(=O)(=O)C3(C(=O)NO)CCC4(CCNCC4)C3)cc2)c(F)c1` (centres unmarked) [Example 1-94], above 25000 nM.
On the same count and under the same terms, to `O=C(O)c1ccc(Oc2ccc(S(=O)(=O)C3(C(=O)NO)CCC4(CCNCC4)C3)cc2)c(F)c1` (centres unmarked) [Example 1-95] belongs above 25000 nM.
Regarding `O=C(NO)C1(S(=O)(=O)c2ccc(NC3CCOCC3)cc2)CCC2(CCNCC2)C1` (centres unmarked) [Example 1-96], the EC50 in test [1] (Homo sapiens) is below 1000 nM. For the same compound, in test [2] (setting [4]), the “BT (bleeding time, mean)” value is “+++** (5 minutes≦BT<10 minutes (+++))”.
In the case of `O=C(NO)C1(S(=O)(=O)c2ccc(NC3CCCC3)cc2)CCC2(CCNCC2)C1` (centres unmarked) [Example 1-97], the EC50 in test [1] (Homo sapiens) lay within 1000 to 10000 nM.
Take `O=C(Oc1ccc(S(=O)(=O)C2(C(=O)NO)CCC3(CCNCC3)C2)cc1)C1CCCCC1` (centres unmarked) [Example 1-98]: the EC50 in test [1] (Homo sapiens) is above 25000 nM.
With `O=C(NO)C1(S(=O)(=O)c2ccc(OCc3ccncc3)cc2)CCC2(CCNCC2)C1` (centres unmarked) [Example 1-100], the EC50 in test [1] (Homo sapiens) was below 1000 nM.
Same read-out and setting: for `CNC(=O)c1ccc(C(=O)Oc2ccc(S(=O)(=O)C3(C(=O)NO)CCC4(CCNCC4)C3)cc2)cc1F` (centres unmarked) [Example 1-101] the value was 1000 to 10000 nM.
As for `O=C(Oc1ccc(S(=O)(=O)C2(C(=O)NO)CCC3(CCNCC3)C2)cc1)c1ccc(OC(F)(F)F)cc1` (centres unmarked) [Example 1-102], the EC50 in test [1] (Homo sapiens) was above 25000 nM. Further, in test [2] (setting [4]), the “BT (bleeding time, mean)” value is “++* (10 minutes≦BT<20 minutes (++))”.
For the compound `CNC(=O)c1ccc(CNc2ccc(S(=O)(=O)C3(C(=O)NO)CCC4(CCNCC4)C3)cc2)cc1` (centres unmarked) [Example 1-104], the EC50 in test [1] (Homo sapiens) is below 1000 nM.
On the same count and under the same terms, to `COC(=O)c1ccc(CNc2ccc(S(=O)(=O)C3(C(=O)NO)CCC4(CCNCC4)C3)cc2)cc1` (centres unmarked) [Example 1-105] belongs above 25000 nM; to `O=C(O)c1ccc(CNc2ccc(S(=O)(=O)C3(C(=O)NO)CCC4(CCNCC4)C3)cc2)cc1` (centres unmarked) [Example 1-106], below 1000 nM.
With `COc1ccc(S(=O)(=O)C2(C(=O)NO)CCC3(CCNCC3)C2)cc1Cl` (centres unmarked) [Example 1-107], in test [1] (Homo sapiens), the EC50 is below 1000 nM. In addition, in test [2] (setting [4]), the “BT (bleeding time, mean)” value is given as “+++** (5 minutes≦BT<10 minutes (+++))”.
For `O=C(NO)C1(S(=O)(=O)c2ccc(OCc3cn[nH]c3)cc2)CCC2(CCNCC2)C1` (centres unmarked) [Example 1-112], in test [1] (Homo sapiens), the EC50 is below 1000 nM. Also, the “BT (bleeding time, mean)” value in test [2] (setting [4]) was “+++** (5 minutes≦BT<10 minutes (+++))”.
As for `O=C(NO)C1(S(=O)(=O)c2ccc(Oc3ccc(OC(F)(F)F)c(Cl)c3)cc2)CCC2(CCNCC2)C1` (centres unmarked) [Example 1-114], the EC50 in test [1] (Homo sapiens) was 10000 to 25000 nM.
Consider `O=C(NO)C1(S(=O)(=O)c2ccc(Oc3cccc(OC(F)(F)F)c3)cc2)CCC2(CCNCC2)C1` (centres unmarked) [Example 1-115], for which the EC50 in test [1] (Homo sapiens) is below 1000 nM.
The same measure, in the same setting: to `O=C(NO)C1(S(=O)(=O)c2ccc(F)c(Cl)c2)CCC2(CCNCC2)C1` (centres unmarked) [Example 1-116, N-hydroxy-3-(3-chloro-4-fluorophenylsulfonyl)-8-azaspiro[4.5]decane-3-carboxamide] belongs below 1000 nM.
On the same count and under the same terms, to `O=C(NO)C1(S(=O)(=O)c2ccc(Oc3ccc(OC(F)(F)F)c(F)c3)cc2)CCC2(CCNCC2)C1` (centres unmarked) [Example 1-118] belongs below 1000 nM.
The same measure, in the same setting: to `COc1ccc(C(=O)Oc2cccc(S(=O)(=O)C3(C(=O)NO)CCC4(CCNCC4)C3)c2)cc1` (centres unmarked) [Example 1-119] belongs below 1000 nM; to `O=C(Oc1cccc(S(=O)(=O)C2(C(=O)NO)CCC3(CCNCC3)C2)c1)c1ccc(OC(F)(F)F)cc1` (centres unmarked) [Example 1-120], above 25000 nM; to `O=C(NO)C1(S(=O)(=O)c2ccc(O)c(Cl)c2)CCC2(CCNCC2)C1` (centres unmarked) [Example 1-121], 1000 to 10000 nM.
As for `O=C(NO)C1(S(=O)(=O)c2ccc(OCc3ccccc3)c(Cl)c2)CCC2(CCNCC2)C1` (centres unmarked) [Example 1-122], the EC50 in test [1] (Homo sapiens) is above 25000 nM.
Same read-out and setting: to `O=C(NO)C1(S(=O)(=O)c2cccc(Oc3ccc(OC(F)(F)F)cc3)c2)CCC2(CCNCC2)C1` (centres unmarked) [Example 1-123] belongs below 1000 nM.
For the compound `O=C(NO)C1(S(=O)(=O)c2ccc(Oc3ccc(OC(F)(F)F)cc3)cc2)CCC2(CCN(C3CC3)CC2)C1` (centres unmarked) [Example 1-124], the EC50 in test [1] (Homo sapiens) is 1000 to 10000 nM.
Same read-out and setting: to `O=C(NO)C1(S(=O)(=O)c2ccc(NCC3CCC(F)(F)CC3)cc2)CCC2(CCNCC2)C1` (centres unmarked) [Example 1-125] belongs below 1000 nM.
For `CNC(=O)c1ccc(Oc2cccc(S(=O)(=O)C3(C(=O)NO)CCC4(CCNCC4)C3)c2)cc1` (centres unmarked) [Example 1-126], the EC50 in test [1] (Homo sapiens) is above 25000 nM.
Consider `O=C(O)c1ccc(Oc2cccc(S(=O)(=O)C3(C(=O)NO)CCC4(CCNCC4)C3)c2)cc1` (centres unmarked) [Example 1-127], for which the EC50 in test [1] (Homo sapiens) was below 1000 nM.
Regarding `O=C(Oc1ccc(S(=O)(=O)C2(C(=O)NO)CCC3(CCNCC3)C2)cc1Cl)c1ccc(OC(F)(F)F)cc1` (centres unmarked) [Example 1-128, N-hydroxy-3-(3-chloro-4-(4-(trifluoromethoxy)Benzoyloxy)Phenylsulfonyl)-8-azaspiro[4.5]decane-3-carboxamide], in test [1] (Homo sapiens), the EC50 was above 25000 nM.
With `COc1ccc(C(=O)Oc2ccc(S(=O)(=O)C3(C(=O)NO)CCC4(CCNCC4)C3)cc2Cl)cc1` (centres unmarked) [Example 1-129], in test [1] (Homo sapiens), the EC50 lay in the range of 1000 to 10000 nM.
Same read-out and setting: for `O=C(NO)C1(S(=O)(=O)c2cccc(OCc3ccc(OC(F)(F)F)cc3)c2)CCC2(CCNCC2)C1` (centres unmarked) [Example 1-130] the value was 1000 to 10000 nM; for `COc1ccc(S(=O)(=O)[C@]2(C(=O)NO)CCC3(CCNCC3)C2)cc1Cl` [Example 1-131], below 1000 nM.
For the compound `COc1ccc(S(=O)(=O)[C@@]2(C(=O)NO)CCC3(CCNCC3)C2)cc1Cl` [Example 1-132], the EC50 in test [1] (Homo sapiens) is below 1000 nM.
For `CNC(=O)c1ccc(Oc2ccc(S(=O)(=O)C3(C(=O)NO)CCC4(CCNCC4)C3)cc2)cc1` (centres unmarked) [Example 1-133], in test [1] (setting [5]), the EC50 is below 1000 nM.
Take `CNC(=O)c1ccc(Oc2ccc(S(=O)(=O)C3(C(=O)NO)CCC4(CCNCC4)C3)cc2)cc1` (centres unmarked) [Example 1-134]: in test [1] (setting [5]), the EC50 was below 1000 nM.
Still for that read-out and setting: to `O=C(NO)C1(S(=O)(=O)c2ccccc2NC2CCCCC2)CCC2(CCNCC2)C1` (centres unmarked) [Example 1-138] belongs below 1000 nM.
Regarding `NC[C@H]1CC[C@H](C(=O)O)CC1` [TXA, tranexamic acid, reference compound], the EC50 in test [1] (Homo sapiens) is 1000 to 10000 nM; in test [3], 1 to 1000 nM. Besides, the “BT (bleeding time, mean)” value in test [2] (300 mg/Kg infused via femoral vein) is recorded as “++** (10 minutes≦BT<20 minutes (++))”.
With Aprotinin [reference compound], the “BT (bleeding time, mean)” value in test [2] (10 mg/Kg infused via femoral vein) is recorded as “++** (10 minutes≦BT<20 minutes (++))”.
